Source: patent publication EP4603105A1, “PHARMACEUTICAL COMPOSITION CONTAINING CYCLIC COMPOUND HAVING SELECTIVE KRAS INHIBITORY EFFECT AGAINST HRAS AND NRAS” (CHUGAI SEIYAKU KABUSHIKI KAISHA, priority 2022, dated 2024)
*1 amine or outer side, *2 acyl side, *3 side chain or, on linkers, in order; H or OH if unused. Where a SMILES comes first, the peptide text is derived from it. Bridges are numbered along the chain shown (N, C = ends). [ ]: non-standard residue; d: D form. The star is where a group is joined. hPhe(3-Cl-4-CF3) = N[C@@H](CCc1ccc(C(F)(F)F)c(Cl)c1)C(=O)O; X33 = O=C([C@H](Cc1ccc(C(F)(F)F)cc1)N(CC1CC1)[*:1])[*:2]; X34 = COCCN([C@@H](Cc1ccc(C(F)(F)F)cc1)C(=O)[*:2])[*:1]; NPrPhe(4-CF3) = CCCN[C@@H](Cc1ccc(C(F)(F)F)cc1)C(=O)O; NMePhe(4-F) = CN[C@@H](Cc1ccc(F)cc1)C(=O)O; NMeGly(cPent) = CN[C@H](C(=O)O)C1CCCC1; Pro(4,4-F2) = O=C(O)[C@@H]1CC(F)(F)CN1; NMeD = CN[C@@H](CC(=O)O)C(=O)O; NMeL = CN[C@@H](CC(C)C)C(=O)O; Morpholide = C1CN(*)CCO1; NMeA = CN[C@@H](C)C(=O)O; Ac5c = NC1(C(=O)O)CCCC1; Aze = O=C(O)[C@@H]1CCN1; NEtG = CCNCC(=O)O; Sar = CNCC(=O)O

Assays:
[1] = test system: human lung cancer strain NCI-H441; format: cell-based
Summary of the method: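 Signal came from […] measured per well once the reagent was added. Beforehand, cells were cultured at 37°C and 5% carbon dioxide on a compound series serially diluted in dimethyl sulfoxide.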

HRAS wild-type protein = HRAS wild-type protein (Homo sapiens, UniProt P01112); assay: Binding to HRAS by surface plasmon resonance (SPR), KD and KD ratio to KRAS
Chain of HRAS wild-type protein (P01112 whole entry): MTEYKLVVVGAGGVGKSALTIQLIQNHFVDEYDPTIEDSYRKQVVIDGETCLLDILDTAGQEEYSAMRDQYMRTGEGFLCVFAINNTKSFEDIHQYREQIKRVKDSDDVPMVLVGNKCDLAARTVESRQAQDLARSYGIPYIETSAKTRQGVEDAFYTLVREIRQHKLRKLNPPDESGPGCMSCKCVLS
Summary of the method: (§1)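 Measured at 30°C: SPR with GDP-loaded, E. coli-expressed biotin-Avi RAS captured (~100–300 RU), ascending 75 s compound injections, HBS pH 7.4 with GDP, MgCl2, 4% DMSO. KD from 1:1 fit.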

[2] = target: GDP-bound NRAS wild-type protein (Homo sapiens, UniProt P01111); assay: Binding to NRAS by surface plasmon resonance (SPR), KD and KD ratio to KRAS
Chain of GDP-bound NRAS wild-type protein (P01111 whole entry): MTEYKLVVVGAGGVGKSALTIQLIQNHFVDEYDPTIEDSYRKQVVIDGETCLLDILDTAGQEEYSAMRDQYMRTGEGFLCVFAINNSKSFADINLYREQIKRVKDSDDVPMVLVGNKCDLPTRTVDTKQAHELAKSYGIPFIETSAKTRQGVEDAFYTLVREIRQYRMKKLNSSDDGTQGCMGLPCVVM
Summary of the method: as §1

[3] = ratio of KD for HRAS wild-type protein to KD for KRAS
[4] = ratio of KD for GDP-bound NRAS wild-type protein to KD for KRAS
[5] = ratio of KD value for HRAS wild-type protein to KD value for KRAS (SPR)
[6] = ratio of KD value for GDP-bound NRAS wild-type protein to KD value for KRAS (SPR)

Compound | IC50 [1] | HRAS /KRAS (HRAS wild-type protein; [3]) | NRAS /KRAS [2, 4] | HRAS /KRAS (HRAS wild-type protein; [5]) | NRAS /KRAS [2, 6] | HRAS /KRAS (HRAS wild-type protein; ratio of the KD value with respect to HRAS wild-type protein to the KD value with respect to KRAS) | NRAS /KRAS ([2]; ratio of the KD value with respect to GDP-bound NRAS wild-type protein to the KD value with respect to KRAS)
CCCN1C(=O)CN(C)C(=O)CN(CC)C(=O)[C@H]([C@@H](C)CC)NC(=O)[C@H](CC(C)C)N(C)C(=O)C[C@@H](C(=O)N(C)C)NC(=O)[C@H](C2CCCC2)N(C)C(=O)C2(CCCC2)NC(=O)[C@@H]2CC(F)(F)CN2C(=O)[C@H](CCc2ccc(C(F)(F)F)c(Cl)c2)NC(=O)CN(C)C(=O)[C@@H]1Cc1ccc(C(F)(F)F)cc1 [PP0369] ([NMeL]I[NEtG][Sar][NPrPhe(4-CF3)][Sar][hPhe(3-Cl-4-CF3)][Pro(4,4-F2)][Ac5c][NMeGly(cPent)]D-NMe2; lactam N-11) | 68.9 nM | C (A compound having a KD ratio of 0.1 or more and less than 3 is denoted as C) | B (a compound having 3 or more and less than 10 is denoted as B) |  |  |  | 
CCO[C@@H]1C[C@H]2C(=O)NC3(CCC3)C(=O)N(C)[C@@H](C3CCCC3)C(=O)N(C)[C@H](C(=O)N(C)C)CC(=O)N(CC)[C@@H](CC(C)C)C(=O)N[C@@H]([C@@H](C)CC)C(=O)N(C)CC(=O)N(C)[C@H]3C/C=C\CCN(C3=O)[C@@H](Cc3ccc(C(F)(F)F)cc3)C(=O)N(C)CC(=O)N[C@@H](CCc3cc(F)c(C(F)(F)F)c(F)c3)C(=O)N2C1 [PP1765] | 16.8 nM |  |  | A (a compound having 10 or more and less than 20 is denoted as A) | A (a compound having 10 or more and less than 20 is denoted as A) |  | 
CC[C@H](C)[C@@H]1NC(=O)[C@H](CC(C)C)N(C)C(=O)C[C@@H](C(=O)N2CCOCC2)N(C)C(=O)[C@H](C2CCCC2)N(C)C(=O)C2(CCCC2)NC(=O)[C@@H]2CCCN2C(=O)[C@H](CCc2cc(F)c(C(F)(F)F)c(F)c2)NC(=O)CN(C)C(=O)[C@H](Cc2ccc(C(F)(F)F)cc2)N2CCCC[C@@H](C2=O)N(C)C(=O)CNC1=O [PP0542] | 3.4 nM |  |  |  |  | B (a compound having 3 or more and less than 10 is denoted as B) | B (a compound having 3 or more and less than 10 is denoted as B)
CC[C@H](C)[C@@H]1NC(=O)[C@H](CC(C)C)N(C)C(=O)C[C@@H](C(=O)N2CCOCC2)N(C)C(=O)[C@H](C2CCCC2)N(C)C(=O)C2(CCCC2)NC(=O)[C@@H]2CCCN2C(=O)[C@H](CCc2ccc(C(F)(F)F)c(Cl)c2)NC(=O)CN(C)C(=O)[C@H](Cc2ccc(F)cc2)N(C)C(=O)CN(C)C(=O)CN(C)C1=O [PP0212] ([NMeL]I[Sar][Sar][NMePhe(4-F)][Sar][hPhe(3-Cl-4-CF3)]P[Ac5c][NMeGly(cPent)][NMeD]-Morpholide; lactam N-11) | 26.6 nM | C (A compound having a KD ratio of 0.1 or more and less than 3 is denoted as C) | C (A compound having a KD ratio of 0.1 or more and less than 3 is denoted as C) |  |  |  | 

Continued by falling IC50 [1], values first:

IC50 [1] | Compound | HRAS /KRAS (HRAS wild-type protein; [3]) | NRAS /KRAS [2, 4] | HRAS /KRAS (HRAS wild-type protein; [5]) | NRAS /KRAS [2, 6] | HRAS /KRAS (HRAS wild-type protein; ratio of the KD value with respect to HRAS wild-type protein to the KD value with respect to KRAS) | NRAS /KRAS ([2]; ratio of the KD value with respect to GDP-bound NRAS wild-type protein to the KD value with respect to KRAS)
20.6 nM | CCC[C@H]1C(=O)N[C@@H](C2CCCCC2)C(=O)N(C)CC(=O)N(C)[C@H]2C/C=C\CCN(C2=O)[C@@H](Cc2ccc(C(F)(F)F)cc2)C(=O)N(C)CC(=O)N[C@@H](CCc2ccc(C(F)(F)F)c(Cl)c2)C(=O)N2C[C@H](OCC)C[C@H]2C(=O)NC2(CC(C)(C)C2)C(=O)N(C)[C@@H](CC(C)(C)C)C(=O)N(C)[C@H](C(=O)N(C)C)CC(=O)N1C [PP3014] | A (a compound having 10 or more and less than 20 is denoted as A) | AA (a compound having 20 or more is denoted as AA) |  |  |  | 
9 nM | CC[C@H](C)[C@@H]1NC(=O)[C@H](CC(C)C)N(C)C(=O)C[C@@H](C(=O)N2CCOCC2)N(C)C(=O)[C@H](C2CCCC2)N(C)C(=O)C2(CCCC2)NC(=O)[C@@H]2CCCN2C(=O)[C@H](CCc2ccc(C(F)(F)F)c(Cl)c2)NC(=O)CN(C)C(=O)[C@H](Cc2ccc(C(F)(F)F)cc2)N(CC2CC2)C(=O)[C@@H]2CCN2C(=O)[C@H](C)N(C)C1=O [PP0108] ([NMeL]I[NMeA][Aze][X33][Sar][hPhe(3-Cl-4-CF3)]P[Ac5c][NMeGly(cPent)][NMeD]-Morpholide; lactam N-11) | C (A compound having a KD ratio of 0.1 or more and less than 3 is denoted as C) | C (A compound having a KD ratio of 0.1 or more and less than 3 is denoted as C) |  |  |  | 
6 nM | CC[C@H](C)[C@@H]1NC(=O)[C@H](CC(C)C)N(C)C(=O)C[C@@H](C(=O)N2CCOCC2)N(C)C(=O)[C@H](C2CCCC2)N(C)C(=O)C2(CCCC2)NC(=O)[C@@H]2CCCN2C(=O)[C@H](CCc2ccc(C(F)(F)F)c(Cl)c2)NC(=O)CN(C)C(=O)[C@H](Cc2ccc(C(F)(F)F)cc2)N(CCOC)C(=O)[C@@H]2CCN2C(=O)[C@H](C)N(C)C1=O [PP0118] ([NMeL]I[NMeA][Aze][X34][Sar][hPhe(3-Cl-4-CF3)]P[Ac5c][NMeGly(cPent)][NMeD]-Morpholide; lactam N-11) | C (A compound having a KD ratio of 0.1 or more and less than 3 is denoted as C) | C (A compound having a KD ratio of 0.1 or more and less than 3 is denoted as C) |  |  |  | 
3.1 nM | CCCN(C)C(=O)[C@@H]1CC(=O)N(C)[C@@H](CC2CC2)C(=O)N[C@@H]([C@@H](C)CC)C(=O)N(C)CC(=O)N(C)[C@H]2C/C=C\CCN(C2=O)[C@@H](Cc2ccc(C(F)(F)F)cc2)C(=O)N(C)CC(=O)N[C@@H](CCc2cc(F)c(C(F)(F)F)c(F)c2)C(=O)N2C[C@H](F)C[C@H]2C(=O)NC2(CC(C)(C)C2)C(=O)N(C)[C@@H](C2CCCC2)C(=O)N1C [PP1665] |  |  | A (a compound having 10 or more and less than 20 is denoted as A) | AA (a compound having 20 or more is denoted as AA) |  | 
